Assay results from US9902725B2, “Heterocyclic derivatives as RORgamma modulators” (GENFIT, priority 2014, dated 2018).

How the values were obtained:
[1] = target: CYP2D6 (Homo sapiens, UniProt P10635); experiment: CYP inhibition CYP2D6 (CEREP); type: in vitro ADME; conditions: human, recombinant CYP2D6, human recombinant CYP, single concentration (typically 10 μM); read-out: CYP 2D6 (% inhibition of Control)
Procedure: All the assays were conducted at CEREP (CEREP, France and USA). Metabolic compound stability was tested in human (CEREP, Ref 607) and mouse (CEREP, Ref: 806) microsomes. Inhibition of human drug-metabolizing cytochromes P450 was tested on the five most commonly responsible enzymes of metabolism of xenobiotics, CYP1A2 (CEREP, Ref 389), CYP2C9 (CEREP, Ref 412), CYP2C19 (CEREP, Ref 390), CYP2D6 (CEREP, Ref 1338) and CYP3A4 (CEREP, Ref 391).
Briefly, CEREP's CYP inhibition assay uses traditional probe substrates, which are specific to individual CYP isoforms. 3-cyano-7-ethoxycoumarin is mainly catalyzed by CYP1A2 and CYP2C19, 3-[2-(N,N-diethyl-N-methylammonium)ethyl]-7-methoxy-4-methylcoumarin for CYP2C9 and CYP2D6 and finally, 7-benzyloxy-4-trifluoromethylcoumarin is pathway catalyzed predominantly by CYP3A4. The inhibition assays were performed with human recombinant CYP isoforms preparations. HPLC MS/MS methods are used to detect metabolites in these assays. Compounds were tested at single concentrations (typically 10 μM) and data were expressed as percent of control inhibition.

[2] = target: T1, RORγt ligand-binding domain (RORγt-LBD) (Homo sapiens, UniProt P51449); experiment: Time-resolved FRET (TR-FRET) RORγt coactivator assay; type: biochemical; conditions: GST-RORγ-LBD, biotinylated RIP140 peptide, coactivator displacement
T1 construct: 20 nM recombinantly expressed RORγ-LBD fused to GST
T1 sequence (P51449 269-508 limits assumed): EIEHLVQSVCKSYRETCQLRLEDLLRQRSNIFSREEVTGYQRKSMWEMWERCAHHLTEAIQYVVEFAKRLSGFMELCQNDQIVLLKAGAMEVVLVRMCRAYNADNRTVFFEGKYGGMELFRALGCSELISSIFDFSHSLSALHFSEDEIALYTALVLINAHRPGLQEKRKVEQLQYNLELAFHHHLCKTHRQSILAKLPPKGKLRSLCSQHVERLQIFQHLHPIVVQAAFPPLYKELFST

CYP2D6, sequence (P10635 whole entry): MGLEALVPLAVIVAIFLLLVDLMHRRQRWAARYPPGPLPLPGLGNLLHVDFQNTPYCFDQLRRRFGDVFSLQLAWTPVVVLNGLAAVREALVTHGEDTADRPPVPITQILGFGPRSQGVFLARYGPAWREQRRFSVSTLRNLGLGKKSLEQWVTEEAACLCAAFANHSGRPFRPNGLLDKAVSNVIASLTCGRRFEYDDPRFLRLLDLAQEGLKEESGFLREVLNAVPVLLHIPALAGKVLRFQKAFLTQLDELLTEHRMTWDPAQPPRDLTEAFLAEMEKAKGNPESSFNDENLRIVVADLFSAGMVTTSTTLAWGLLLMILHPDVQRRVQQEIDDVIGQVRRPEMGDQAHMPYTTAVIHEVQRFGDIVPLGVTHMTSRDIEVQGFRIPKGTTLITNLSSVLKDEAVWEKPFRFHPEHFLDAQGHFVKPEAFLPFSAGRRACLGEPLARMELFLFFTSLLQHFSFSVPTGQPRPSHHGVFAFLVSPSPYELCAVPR

| inhibition at 10 µM [1] [%] | IC50 [2] [nM] | Compound |
| --- | --- | --- |
| 49 | < 1000 | O=C(O)CCc1c[nH]c2ccc(CC(=O)NC(c3ccccc3)c3ccccc3N3CCCCC3)cc12 (centres unmarked) [Cpd. 1, 3-{5-[({phenyl[2-(piperidin-1-yl)phenyl]methyl}carbamoyl)methyl]-1H-indol-3-yl}propanoic acid] |
| -2 | < 1000 | O=C(O)CCc1c[nH]c2ccc(CC(=O)NC(c3cccc(F)c3)c3ccccc3N3CCCCC3)cc12 (centres unmarked) [Cpd. 3, 3-[5-({[(3-fluorophenyl)[2-(piperidin-1-yl)phenyl]methyl]carbamoyl}methyl)-1H-indol-3-yl]propanoic acid] |
| 13.5 | < 1000 | Cc1ccc(C(NC(=O)Cc2ccc3[nH]cc(CCC(=O)O)c3c2)c2ccccc2)c(N2CCCC2)c1 (centres unmarked) [Cpd. 5, 3-{5-[({[4-methyl-2-(pyrrolidin-1-yl)phenyl](phenyl)methyl}carbamoyl)methyl]-1H-indol-3-yl}propanoic acid] |
| 18.2 | < 1000 | CC(C)CC(NC(=O)Cc1ccc2[nH]cc(CCC(=O)O)c2c1)c1ccccc1N1CCCCC1 (centres unmarked) [Cpd. 29, 3-{5-[({3-methyl-1-[2-(piperidin-1-yl)phenyl]butyl}carbamoyl)methyl]-1H-indol-3-yl}propanoic acid] |
| 78.9 | < 1000 | O=C(O)CCc1c[nH]c2ccc(CC(=O)NC(c3ccccc3)c3ccc(C(F)(F)F)cc3N3CCCC3)cc12 (centres unmarked) [Cpd. 48, 3-{5-[({phenyl[2-(pyrrolidin-1-yl)-4-(trifluoromethyl)phenyl]methyl}carbamoyl)methyl]-1H-indol-3-yl}propanoic acid] |
| 26.5 | < 1000 | O=C(O)CCc1c[nH]c2ccc(CC(=O)NC(c3ccccc3)c3ccc(Br)cc3N3CCCC3)cc12 (centres unmarked) [Cpd. 50, 3-{5-[({[4-bromo-2-(pyrrolidin-1-yl)phenyl](phenyl)methyl}carbamoyl)methyl]-1H-indol-3-yl}propanoic acid] |
| 6.2 | < 1000 | Cc1ccc(C(NC(=O)Cc2ccc3[nH]cc(CCC(=O)O)c3c2)c2ccccc2)c(N2CCCCC2)c1 (centres unmarked) [Cpd. 77, 3-{5-[({[4-methyl-2-(piperidin-1-yl)phenyl](phenyl)methyl}carbamoyl)methyl]-1H-indol-3-yl}propanoic acid] |
| 7.5 | < 1000 | COc1ccc(C(NC(=O)Cc2ccc3[nH]cc(CCC(=O)O)c3c2)c2ccccc2)c(N2CCCCC2)c1 (centres unmarked) [Cpd. 111, 3-{5-[({[4-methoxy-2-(piperidin-1-yl)phenyl](phenyl)methyl}carbamoyl)methyl]-1H-indol-3-yl}propanoic acid] |
| 4.3 | < 1000 | Cc1ccc(C(NC(=O)Cc2ccc3[nH]cc(CCC(=O)O)c3c2)c2ccccc2)c(N(C)C)c1 (centres unmarked) [Cpd. 192, 3-{5-[({[2-(dimethylamino)-4-methylphenyl](phenyl)methyl}carbamoyl)methyl]-1H-indol-3-yl}propanoic acid] |
| -6.3 | < 1000 | O=C(O)CCCc1c[nH]c2ccc(CC(=O)NC(c3ccccc3)c3ccccc3N3CCCCC3)cc12 (centres unmarked) [Cpd. 212, 4-{5-[({phenyl[2-(piperidin-1-yl)phenyl]methyl}carbamoyl)methyl]-1H-indol-3-yl}butanoic acid] |
